What all share (type): ADME
What all share (conditions): 0.5 h

Data set [1] concerns the target T1, Cytochrome P450 2C8 (Homo sapiens, UniProt P10632).
T1 sequence (P10632 whole entry): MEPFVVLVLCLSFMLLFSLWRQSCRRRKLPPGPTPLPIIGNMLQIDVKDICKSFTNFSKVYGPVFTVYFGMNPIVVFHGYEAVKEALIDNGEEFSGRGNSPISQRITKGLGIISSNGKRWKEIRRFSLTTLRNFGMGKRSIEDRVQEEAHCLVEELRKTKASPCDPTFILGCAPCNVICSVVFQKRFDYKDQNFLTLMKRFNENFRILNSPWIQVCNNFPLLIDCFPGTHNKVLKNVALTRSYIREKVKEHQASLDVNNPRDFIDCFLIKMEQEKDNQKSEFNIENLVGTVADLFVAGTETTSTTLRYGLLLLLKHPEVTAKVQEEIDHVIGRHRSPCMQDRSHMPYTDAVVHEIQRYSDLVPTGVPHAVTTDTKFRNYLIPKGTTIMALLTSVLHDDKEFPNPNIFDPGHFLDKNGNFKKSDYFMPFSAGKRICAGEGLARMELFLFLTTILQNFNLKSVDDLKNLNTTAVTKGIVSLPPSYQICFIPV
Put plainly: Drug metabolism in supersomes expressing human recombinant CYP2C8 assessed as enzyme-mediated N-desmethylclozapine metabolite formation at 100 uM after 30 mins measured per nmol of P450 by HPLC analysis.

Another data set addresses T2, Cytochrome P450 1B1 (Homo sapiens, UniProt Q16678).
T2 sequence (Q16678 whole entry): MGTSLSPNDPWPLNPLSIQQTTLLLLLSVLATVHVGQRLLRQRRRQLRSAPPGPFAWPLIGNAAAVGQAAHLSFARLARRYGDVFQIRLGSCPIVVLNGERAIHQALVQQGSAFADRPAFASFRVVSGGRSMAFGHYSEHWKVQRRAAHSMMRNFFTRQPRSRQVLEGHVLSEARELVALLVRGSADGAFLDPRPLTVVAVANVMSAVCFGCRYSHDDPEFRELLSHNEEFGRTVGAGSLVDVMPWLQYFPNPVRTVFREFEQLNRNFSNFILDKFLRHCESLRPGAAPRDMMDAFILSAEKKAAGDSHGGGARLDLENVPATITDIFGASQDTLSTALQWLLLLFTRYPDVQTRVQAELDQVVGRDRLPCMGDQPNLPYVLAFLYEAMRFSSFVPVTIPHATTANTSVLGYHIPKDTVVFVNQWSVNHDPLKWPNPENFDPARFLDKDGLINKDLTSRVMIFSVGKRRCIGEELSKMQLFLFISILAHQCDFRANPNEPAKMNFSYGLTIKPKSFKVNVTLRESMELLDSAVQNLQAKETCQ
Put plainly: Drug metabolism in supersomes expressing human recombinant CYP1B1 assessed as enzyme-mediated N-desmethylclozapine metabolite formation at 10 uM after 30 mins measured per nmol of P450 by HPLC analysis.

Data set [2] concerns the target T3, Cytochrome P450 2C9 (Homo sapiens, UniProt P11712). Put plainly: Drug metabolism in supersomes expressing human recombinant CYP2C9 assessed as enzyme-mediated clozapine-N-oxide metabolite formation at 100 uM after 30 mins measured per nmol of P450 by HPLC analysis.
Data set [3] deals with T4, Cytochrome P450 2C18 (Homo sapiens, UniProt P33260).
T4 sequence (P33260 whole entry): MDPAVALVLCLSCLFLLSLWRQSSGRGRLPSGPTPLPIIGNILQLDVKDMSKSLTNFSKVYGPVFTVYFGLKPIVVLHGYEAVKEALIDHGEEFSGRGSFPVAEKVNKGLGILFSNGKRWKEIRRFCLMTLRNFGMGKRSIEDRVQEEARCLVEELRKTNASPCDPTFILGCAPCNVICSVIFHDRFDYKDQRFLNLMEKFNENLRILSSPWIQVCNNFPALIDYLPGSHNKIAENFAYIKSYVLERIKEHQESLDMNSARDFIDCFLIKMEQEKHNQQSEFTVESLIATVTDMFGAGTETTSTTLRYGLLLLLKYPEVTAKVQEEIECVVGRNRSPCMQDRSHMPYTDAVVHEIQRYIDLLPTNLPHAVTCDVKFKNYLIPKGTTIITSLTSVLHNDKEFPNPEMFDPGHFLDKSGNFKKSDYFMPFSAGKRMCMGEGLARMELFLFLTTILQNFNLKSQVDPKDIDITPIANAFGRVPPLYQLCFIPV
Briefly: Drug metabolism in supersomes expressing human recombinant CYP2C18 assessed as enzyme-mediated clozapine-N-oxide metabolite formation at 100 uM after 30 mins measured per nmol of P450 by HPLC analysis.

Data set [4] deals with T5, Cytochrome P450 2D6 (Homo sapiens, UniProt P10635). Put plainly: Drug metabolism in supersomes expressing human recombinant CYP2D6 assessed as enzyme-mediated total GSH conjugate formation at 10 uM after 30 mins measured per nmol of P450 by HPLC analysis in presence of GSH and hGST P1-1.
T5 sequence (P10635 whole entry): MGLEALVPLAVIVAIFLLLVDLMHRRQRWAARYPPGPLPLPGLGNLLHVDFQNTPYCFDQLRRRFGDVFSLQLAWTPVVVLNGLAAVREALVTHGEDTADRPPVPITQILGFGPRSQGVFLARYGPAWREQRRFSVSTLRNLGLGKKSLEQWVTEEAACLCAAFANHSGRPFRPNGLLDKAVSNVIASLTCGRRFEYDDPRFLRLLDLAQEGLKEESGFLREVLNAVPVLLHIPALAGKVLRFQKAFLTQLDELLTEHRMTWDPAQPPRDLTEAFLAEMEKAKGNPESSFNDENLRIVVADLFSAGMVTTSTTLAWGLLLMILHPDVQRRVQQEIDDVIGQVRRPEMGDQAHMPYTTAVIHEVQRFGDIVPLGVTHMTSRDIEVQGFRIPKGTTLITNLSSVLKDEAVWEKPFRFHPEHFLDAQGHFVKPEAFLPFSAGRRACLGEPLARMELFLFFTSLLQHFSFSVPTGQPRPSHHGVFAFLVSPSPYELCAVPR
Data set [5] deals with T3, Cytochrome P450 2C9. Briefly: Drug metabolism in supersomes expressing human recombinant CYP2C9 assessed as enzyme-mediated cyanide adduct formation at 100 uM after 30 mins measured per nmol of P450 by HPLC analysis in presence of KCN.
For data set [6], the target named is T5, Cytochrome P450 2D6. Put plainly: Drug metabolism in supersomes expressing human recombinant CYP2D6 assessed as enzyme-mediated cyanide adduct formation at 100 uM after 30 mins measured per nmol of P450 by HPLC analysis in presence of KCN.
The next data set has as its target T6, Cytochrome P450 1A2 (Homo sapiens, UniProt P05177).
T6 sequence (P05177 whole entry): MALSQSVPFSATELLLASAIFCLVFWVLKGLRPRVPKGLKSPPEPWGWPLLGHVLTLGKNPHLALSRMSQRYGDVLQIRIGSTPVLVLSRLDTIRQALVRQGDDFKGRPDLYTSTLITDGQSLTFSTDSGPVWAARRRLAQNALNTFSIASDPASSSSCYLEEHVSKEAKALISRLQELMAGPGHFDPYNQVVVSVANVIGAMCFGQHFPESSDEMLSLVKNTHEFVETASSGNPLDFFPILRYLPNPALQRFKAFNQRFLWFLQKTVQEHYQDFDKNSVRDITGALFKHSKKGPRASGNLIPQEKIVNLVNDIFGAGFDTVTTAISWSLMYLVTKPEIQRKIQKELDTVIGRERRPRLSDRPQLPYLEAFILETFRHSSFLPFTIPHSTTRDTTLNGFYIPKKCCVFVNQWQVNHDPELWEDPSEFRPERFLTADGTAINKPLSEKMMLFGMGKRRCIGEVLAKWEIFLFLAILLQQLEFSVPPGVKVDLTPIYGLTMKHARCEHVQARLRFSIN
Briefly: Drug metabolism in supersomes expressing human recombinant CYP1A2 assessed as enzyme-mediated N-desmethylclozapine metabolite formation at 100 uM after 30 mins measured per nmol of P450 by HPLC analysis.

For data set [7], the target named is T4, Cytochrome P450 2C18. Briefly: Drug metabolism in supersomes expressing human recombinant CYP2C18 assessed as enzyme-mediated N-desmethylclozapine metabolite formation at 100 uM after 30 mins measured per nmol of P450 by HPLC analysis.
The target of data set [8] is T1, Cytochrome P450 2C8. Briefly: Drug metabolism in supersomes expressing human recombinant CYP2C8 assessed as enzyme-mediated clozapine-N-oxide metabolite formation at 100 uM after 30 mins measured per nmol of P450 by HPLC analysis.

T3 sequence (P11712 whole entry): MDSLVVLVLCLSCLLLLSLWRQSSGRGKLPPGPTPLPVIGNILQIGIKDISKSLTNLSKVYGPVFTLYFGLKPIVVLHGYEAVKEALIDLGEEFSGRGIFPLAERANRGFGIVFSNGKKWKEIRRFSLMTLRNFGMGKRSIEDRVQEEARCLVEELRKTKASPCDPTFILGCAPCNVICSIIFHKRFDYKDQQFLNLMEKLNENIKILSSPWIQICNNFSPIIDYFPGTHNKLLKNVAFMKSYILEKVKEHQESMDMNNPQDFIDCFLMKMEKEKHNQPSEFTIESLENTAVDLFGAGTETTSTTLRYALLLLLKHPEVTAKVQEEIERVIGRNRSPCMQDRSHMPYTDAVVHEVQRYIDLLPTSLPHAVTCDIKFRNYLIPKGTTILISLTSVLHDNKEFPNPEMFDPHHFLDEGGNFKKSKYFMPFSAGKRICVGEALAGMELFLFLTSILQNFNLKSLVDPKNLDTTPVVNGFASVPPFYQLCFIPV

Consider `CN1CCN(C2=Nc3cc(Cl)ccc3Nc3ccccc32)CC1` [CLOZAPINE], for which the Drug metabolism on Cytochrome P450 2C8 [1] is 0.89 nmol/min; at Cytochrome P450 1B1, 1.16 nmol/min; at Cytochrome P450 2C9 [2], 0.057 nmol/min; on Cytochrome P450 2C18 [3], 0.065 nmol/min; at Cytochrome P450 2D6 [4] it was 0.47 nmol/min; at Cytochrome P450 2C9 [5], 0.01 nmol/min. Also, the Drug metabolism on Cytochrome P450 2D6 [6] was determined as 0.64 nmol/min; at Cytochrome P450 1A2, 8.71 nmol/min; on Cytochrome P450 2C18 [7], 5.71 nmol/min/nmol P450; at Cytochrome P450 2C8 [8] it was 0.075 nmol/min/nmol P450.

For the origin of these results see ChEMBL document CHEMBL3525934 (Drug Metab Dispos, 2013).
